Consider one compound from US10617693B2, “Methods of treating and/or preventing actinic keratosis” (Athenex, Inc., priority 2017, dated 2020).

Series [1] relates to subjects with AK on the dorsal forearm. Conditions: human, in vivo.
Description: A Phase 1, single-center, safety, tolerability and pharmacokinetic study of KX-01 was performed on subjects with AK on the dorsal forearm. This was an open-label, uncontrolled, nonrandomized, sequential group clinical trial conducted at a single investigational center in the United States. The primary objectives of the study were to assess the safety, tolerability and pharmacokinetics of KX-01 in subjects with AK. The secondary objective was to evaluate the activity of KX-01 administered topically to the dorsal forearm in subjects with AK.
KX-01 was administered topically on treatment days. All subjects were monitored for safety and tolerability that included LSRs, AEs, vital signs, clinical laboratory tests, ECGs, and physical examinations at baseline and at pre-defined time points during treatment and follow-up on days 1, 2, 3, 4, 5, 8, 10, 17, 31 and 45.
LSRs (erythema, flaking/scaling, crusting, swelling, vesiculation/pustulation, erosion/ulceration) were assessed by the investigator or trained designee using a 4-point scale according to the protocol. The subject's assessment of the symptoms (stinging/burning, pruritus) associated with irritation of the treatment area was evaluated on a 4-point scale (0=none, 1=mild, 2=moderate, 3=severe). Subjects were queried for spontaneously reported AEs at each study visit before assessment of LSRs. LSRs and AEs were reported separately. All LSRs were to be followed to resolution or stabilization.
For series [2], the system named is skin of forearm or forehead of AK patients. The series is described as follows: Comparison of skin reactions, photographs (FIGS. 3A-4B). In kind it is in vivo, human. The source says:
The comparison in FIGS. 3A, 3B, 4A, and 4B illustrates the lack of skin toxicity observed in the treatment of AK with topically administered KX-01 compared to the approved therapy for AK.

Series [3] can be described thus: Plasma pharmacokinetics after topical administration, LC-MS/MS. The series is classed as in vivo, human. The protocol:
KX-01 was tested in adult subjects with actinic keratosis of the dorsal forearm (Example 1) and actinic keratosis on the face or scalp (Examples 2a and 2b). In Example 1, the plasma pharmacokinetics (PK) of KX-01 following topical administration was evaluated by collection of plasma on days 1 and 3 of the 3-day regimens and on days 1 and 5 of the 5-day regimens (Table 12). In Examples 2a and 2b, plasma samples were collected on days 1 and 5 of Cohort 1 (Table 13). Plasma samples at similar time points were collected on days 1 and 3 of Cohort 2. KX-01 was measured in human plasma using a validated LC-MS/MS assay with a lower limit of quantification (LLOQ) of 0.1 ng/mL.

`O=C(Cc1ccc(-c2ccc(OCCN3CCOCC3)cc2)cn1)NCc1ccccc1` [KX-01]: the “Serious adverse event (SAE) or death” value in series [1] is reported as “no serious adverse event (SAE) or death”. Further, in series [2] (day 3 and day 5 of treatment), the “Skin reaction in the forearm” value was “minimal or no adverse skin reactions”. The “Skin reaction in the forehead” value in series [2] (day 8 and day 57, subject with 100% response) is listed as “minimal or no adverse skin reactions”. Also, in series [2] (in vivo), the “Skin reactions compared with Picato” value was “fewer and less severe skin reactions”. The “Efficacy for clearing AK lesions compared with Picato” value in series [2] (initial data of Examples 1, 2a, 2b) is “may be similar”. In addition, the “Plasma concentration, back-up sample” value was “BLQ” in series [3] (Day 5, 0.5 hours post-dose, back-up of the 23 ng/mL sample); 0.351 ng/mL in series [3] (Day 5, 1 hour post-dose, back-up of the 44 ng/mL sample); 30 ng/mL in series [3] (back-up of the third aberrant sample). In addition, the “Plasma concentration, aberrant primary sample” value in series [3] (Day 5, 0.5 hours post-dose, likely cross contamination) is 23 ng/mL; in series [3] (Day 5, 1 hour post-dose, likely cross contamination), 44 ng/mL. Also, the “Plasma samples above the limit of quantification” value in series [3] (KX01-AK-002, after 1 day of treatment, of 336 samples) was determined as 15. In addition, in series [3] (KX01-AK-002, all except three aberrant samples), the Measurable plasma concentrations entry was “below 0.7 ng/mL”. Further, in series [3] (KX01-AK-002 Cohort 1), the “Subjects with measurable plasma concentrations at 4 hours post-dose on Day 5” value was 42 out of 84. The “Subjects with quantifiable concentrations prior to the dose on Day 5” value in series [3] (KX01-AK-002 Cohort 1) was 8 of 84. In series [3] (both studies), the “Plasma concentrations below the level of quantification (BLQ)” value was 75%. The concentration at 5 days in series [3] (human, plasma, up to 5 consecutive days of topical treatment, read-out: Systemic exposure (plasma concentration)) is less than 1 ng/mL. Moreover, in series [3] (third aberrant sample, likely cross contamination), the “Apparent plasma concentration, aberrant sample” value is listed as “above 12,500 ng/mL”. The “Systemic exposure (plasma concentration)” value in series [3] (up to 5 consecutive days of topical treatment) is recorded as less than 1 ng/mL.
